# Experimental data taken from PubChem BioAssay (NCI).
#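 Dose response: 5 concentrations. Exposure: 48 h. Format: 96-well plates. Endpoint: linear interpolation; highest concentration if not reached. GI50 is the concentration that inhibits growth by half. TGI marks complete inhibition of growth.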
# Assays:
# Experiment in all cases: DTP human tumour cell line panel, 48 h
# 786-0 renal = tested on: 786-0 renal
# A549 NSCLC = tested on: A549 NSCLC
# ACHN renal = tested on: ACHN renal
# BT-549 breast = tested on: BT-549 breast
# CAKI-1 renal = tested on: CAKI-1 renal
# COLO 205 colon = tested on: COLO 205 colon
# EKVX NSCLC = tested on: EKVX NSCLC
# HCC-2998 colon = tested on: HCC-2998 colon
# HCT-116 colon = tested on: HCT-116 colon
# HCT-15 colon = tested on: HCT-15 colon
# HOP-62 NSCLC = tested on: HOP-62 NSCLC
# HOP-92 NSCLC = tested on: HOP-92 NSCLC
# HS 578T breast = tested on: HS 578T breast
# HT29 colon = tested on: HT29 colon
# IGROV1 ovarian = tested on: IGROV1 ovarian
# K-562 leukemia = tested on: K-562 leukemia
# KM12 colon = tested on: KM12 colon
# M14 melanoma = tested on: M14 melanoma
# MALME-3M melanoma = tested on: MALME-3M melanoma
# MCF7 breast = tested on: MCF7 breast
# MDA-MB-231 breast = tested on: MDA-MB-231 breast
# MDA-MB-435 = tested on: MDA-MB-435
# MOLT-4 leukemia = tested on: MOLT-4 leukemia
# NCI-H23 lung = tested on: NCI-H23 lung
# NCI-H460 lung = tested on: NCI-H460 lung
# NCI-H522 lung = tested on: NCI-H522 lung
# NCI/ADR-RES ovarian = tested on: NCI/ADR-RES ovarian
# OVCAR-5 ovarian = tested on: OVCAR-5 ovarian
# OVCAR-8 ovarian = tested on: OVCAR-8 ovarian
# PC-3 prostate = tested on: PC-3 prostate
# RXF 393 renal = tested on: RXF 393 renal
# SF-268 CNS = tested on: SF-268 CNS
# SF-539 CNS = tested on: SF-539 CNS
# SK-MEL-2 melanoma = tested on: SK-MEL-2 melanoma
# SK-MEL-28 melanoma = tested on: SK-MEL-28 melanoma
# SK-OV-3 ovarian = tested on: SK-OV-3 ovarian
# SNB-19 CNS = tested on: SNB-19 CNS
# SNB-75 CNS = tested on: SNB-75 CNS
# T-47D breast = tested on: T-47D breast
# TK-10 renal = tested on: TK-10 renal
# U251 CNS = tested on: U251 CNS
# UACC-257 melanoma = tested on: UACC-257 melanoma
# UO-31 renal = tested on: UO-31 renal
compound,measurement,setting,value
CC12OC(C(=O)C13CC3)C1C(=O)c3c(O)ccc(O)c3C(=O)C12 (stereo unspecified),GI50,786-0 renal,2.19 µM
same,TGI,786-0 renal,6.56 µM
same,GI50,A549 NSCLC,17.5 µM
same,TGI,A549 NSCLC,39.2 µM
same,GI50,ACHN renal,3.54 µM
same,TGI,ACHN renal,15.2 µM
same,GI50,BT-549 breast,22.1 µM
same,TGI,BT-549 breast,51.8 µM
same,GI50,CAKI-1 renal,4.68 µM
same,TGI,CAKI-1 renal,17.9 µM
same,GI50,COLO 205 colon,15.4 µM
same,TGI,COLO 205 colon,35.8 µM
same,GI50,EKVX NSCLC,12.1 µM
same,TGI,EKVX NSCLC,48.3 µM
same,GI50,HCC-2998 colon,11.9 µM
same,TGI,HCC-2998 colon,27.4 µM
same,GI50,HCT-116 colon,14.3 µM
same,TGI,HCT-116 colon,28.2 µM
same,GI50,HCT-15 colon,11 µM
same,TGI,HCT-15 colon,24.7 µM
same,GI50,HOP-62 NSCLC,21.3 µM
same,TGI,HOP-62 NSCLC,60.5 µM
same,GI50,HOP-92 NSCLC,11.9 µM
same,TGI,HOP-92 NSCLC,41 µM
same,GI50,HS 578T breast,16.3 µM
same,TGI,HS 578T breast,46.2 µM
same,GI50,HT29 colon,16.2 µM
same,TGI,HT29 colon,38.9 µM
same,GI50,IGROV1 ovarian,13.4 µM
same,TGI,IGROV1 ovarian,29.7 µM
same,GI50,K-562 leukemia,13.8 µM
same,TGI,K-562 leukemia,34.6 µM
same,GI50,KM12 colon,23.5 µM
same,TGI,KM12 colon,90.1 µM
same,GI50,M14 melanoma,15.3 µM
same,TGI,M14 melanoma,30.2 µM
same,GI50,MALME-3M melanoma,13.7 µM
same,TGI,MALME-3M melanoma,30.5 µM
same,GI50,MCF7 breast,11.2 µM
same,TGI,MCF7 breast,26.3 µM
same,GI50,MDA-MB-231 breast,24.6 µM
same,TGI,MDA-MB-231 breast,46.6 µM
same,GI50,MDA-MB-435,18.4 µM
same,TGI,MDA-MB-435,36.5 µM
same,GI50,MOLT-4 leukemia,2.35 µM
same,TGI,MOLT-4 leukemia,10.2 µM
same,GI50,NCI-H23 lung,14.4 µM
same,TGI,NCI-H23 lung,31.1 µM
same,GI50,NCI-H460 lung,31.5 µM
same,TGI,NCI-H460 lung,> 100 µM
same,GI50,NCI-H522 lung,16.1 µM
same,TGI,NCI-H522 lung,32 µM
same,GI50,NCI/ADR-RES ovarian,20.1 µM
same,TGI,NCI/ADR-RES ovarian,66.8 µM
same,GI50,OVCAR-5 ovarian,19.4 µM
same,TGI,OVCAR-5 ovarian,43.8 µM
same,GI50,OVCAR-8 ovarian,15.6 µM
same,TGI,OVCAR-8 ovarian,36.1 µM
same,GI50,PC-3 prostate,16.5 µM
same,TGI,PC-3 prostate,37.1 µM
same,GI50,RXF 393 renal,16.7 µM
same,TGI,RXF 393 renal,37.6 µM
same,GI50,SF-268 CNS,15.1 µM
same,TGI,SF-268 CNS,45.8 µM
same,GI50,SF-539 CNS,19.4 µM
same,TGI,SF-539 CNS,49.9 µM
same,GI50,SK-MEL-2 melanoma,33.9 µM
same,TGI,SK-MEL-2 melanoma,> 100 µM
same,GI50,SK-MEL-28 melanoma,24.6 µM
same,TGI,SK-MEL-28 melanoma,78.7 µM
same,GI50,SK-OV-3 ovarian,24.6 µM
same,TGI,SK-OV-3 ovarian,78 µM
same,GI50,SNB-19 CNS,28.9 µM
same,TGI,SNB-19 CNS,> 100 µM
same,GI50,SNB-75 CNS,20.6 µM
same,TGI,SNB-75 CNS,40.8 µM
same,GI50,T-47D breast,11.6 µM
same,TGI,T-47D breast,32 µM
same,GI50,TK-10 renal,15.6 µM
same,TGI,TK-10 renal,35.2 µM
same,GI50,U251 CNS,14.7 µM
same,TGI,U251 CNS,31.1 µM
same,GI50,UACC-257 melanoma,13.9 µM
same,TGI,UACC-257 melanoma,29.1 µM
same,GI50,UO-31 renal,22.8 µM
same,TGI,UO-31 renal,55.6 µM
